Reference: patent publication US11140897B2, “Liquid-core capsules for pest control” (Katz Biotech AG, priority 2015, dated 2021)

Assays:
[1] = active substance release from liquid-core capsules in two manufacturing variants (headspace sampling, GC-MS); format: physicochemical; settings: 1 week
Procedure: The experiment was conducted in principle as in the model system described in Section D in terms of odor collection and analysis using gas chromatography with mass spectrometry coupling. The following table and FIG. 6 summarize the results of the experiment.

Lygus rugulipennis [2] = assay: olfactometer experiments for attractant effect on true bugs; format: in vivo; settings: for true bugs running in the direction of the attractant / attracting action: attractant concentration 0.01 μg/μL (FIG. 7)
Procedure: Comparative behavior studies were conducted on the bug species Lygus rugulipennis in the olfactometer for identifying suitable attractants (odors). The attracting action of a total of 28 different concentrations of substances and substance mixtures was determined in about 380 individual tests. A result was considered purely coincidental if 50% of the animals decided in favor of an odor and 50% decided against. The odor is considered attractive if more than about 65% of the animals move towards it. […] The certainty of the evaluation increases with the number of tests and is accepted after about 10 repetitions.

Lygus rugulipennis [3] = assay: effect on true bugs after ingesting core liquid with active substance; format: in vivo
Procedure: Experiments were conducted with Lygus rugulipennis and the liquid-core capsules according to the invention, wherein an aqueous nutrient solution having 0.5% NeemAzal® T/S (biological active substance: azadirachtin 0.1%) was present in the core of the capsules. Another experiment was conducted with the chemical active substance acetamiprid (0.01%). When they had contact with the liquid-core capsules, the true bugs used their proboscis to pierce the outer shells of the liquid-core capsules and ingest at least some of the core solution. […] The animals were subjected to a 6-hour hunger phase prior to the beginning of the experiment. […] The lengthy dwell time of the proboscis in the capsule permits this conclusion. With the imago insects, this was an average of 160 seconds, 150 seconds with the nymphs. With the imago insects, this was preceded by a mean testing period (feeling the capsule with the proboscis) of about 30 seconds.
The true bugs ceased their activity nearly entirely about 1 day after ingesting the core liquid with the active substance azadirachtin and died after 5 days, on average. The chemical active substance acetamiprid took effect a few seconds after being ingested.

true bugs = assay: electrophysiological examinations (electroantennography) of true bugs; settings: higher concentration (10 μg/μL, FIG. 9)
Procedure: Electroantennography is a method for measuring the olfactory reactions of an insect by recording electrical signals on the antennae, wherein slow changes in receptor potential that are preferably recorded in the extracellular space within the insect antenna are analyzed. Complex odor mixtures may be investigated using this method. For instance, the use of electroantennography for identifying attractants for wasps is known from DE 11 2010 005 095 T5.
FIGS. 8 and 9 summarize the results of electrophysiological examinations of true bugs. Green leaf volatiles (Z)-3-hexenyl acetate, (Z)-3-hexen-1-ol, 1-hexenal, the terpenoids (E)-β-caryophyllene, methyl salicylate, ocimene, phenylacetaldehyde, nonanal, alpha-pinene, and geraniol were tested as plant odors, hexyl butyrate and (E)-2-hexenyl butyrate were tested as pheromones of insects, and a synthetic active substance mixture made of (Z)-3-hexen-1-ol, (E)-β-caryophyllene, and hexyl butyrate were tested. FIG. 8 provides the responses in female (a) and male (b) true bugs at an active substance concentration of 0.1 μg/μL. FIG. 9 provides the responses in female (a) and male (b) true bugs at an active substance concentration of 10 μg/μL.

[4] = loss in mass of alginate model cylinders with additives in the hydrogel; format: physicochemical
Procedure: The following table summarizes the absolute losses in mass for alginate model cylinders (d=13 mm, h=13 mm) after 240 minutes, with the addition of various additives in their most suitable concentrations and the relative losses in mass compared to the losses in mass of the standard specimen without the additives (MCC—microcrystalline cellulose, EC—ethyl cellulose).

[5] = core: nutrient solution with 0.5% NeemAzal T/S (azadirachtin 0.1%)

odor collected ([1]; capsules Type 1) | quantity of odor per unit of time ([1]; capsules Type 1) | odor collected ([1]; capsules Type 2) | quantity of odor per unit of time ([1]; capsules Type 2) | Structure (SMILES) | true bugs running in the direction of the attractant / attracting action (Lygus rugulipennis [2]) | change of attracting effect in increased concentrations (Lygus rugulipennis [2]; in vivo) | also measured
2.0% | 58.8 µg | 19.7% | 592.0 µg | CCCCCCOC(=O)CCC [Hexyl butyrate] | – | – | attraction in olfactometer experiments (Lygus rugulipennis [2]; in vivo): not preferred
– | – | – | – | C/C=C(\C)C(=O)O[C@H]1C[C@@H](OC(C)=O)[C@@]2(C(=O)OC)CO[C@H]3[C@@H](O)[C@@](C)([C@]45O[C@@]4(C)[C@H]4C[C@@H]5O[C@@H]5OC=C[C@@]54O)[C@H]4[C@]1(CO[C@]4(O)C(=O)OC)[C@@H]32 [azadirachtin] | – | – | time to death, on average (Lygus rugulipennis [3]; [5]): 5 days; time until activity ceased nearly entirely after ingesting the core liquid (Lygus rugulipennis [3]; [5]): about 1 day
– | – | – | – | C/C(=N\C#N)N(C)Cc1ccc(Cl)nc1 [acetamiprid] | – | – | time until active substance took effect after being ingested (Lygus rugulipennis [3]; acetamiprid 0.01% in core): a few seconds; time to death (Lygus rugulipennis [3]; acetamiprid 0.01% in core, after violent quivering): a few minutes later
0.5% | 15.2 µg | 7.8% | 235.1 µg | CC/C=C\CCO [(Z)-3-hexen-1-ol] | 80% | reduced | –
– | – | – | – | CCCCCCCCC=O [nonanal] | about 45% | increases | attracting action (Lygus rugulipennis [2]; concentration 1 μg/μL): about 60%; registration by antennal chemoreceptors (true bugs): registered
6.8% | 205.2 µg | 26.0% | 781.0 µg | C=C1CC/C=C(\C)CC[C@@H]2[C@@H]1CC2(C)C [(E)-b-caryophyllene] | 80% | reduced | –
– | – | – | – | O=CCc1ccccc1 [phenylacetaldehyde] | – | – | registration by antennal chemoreceptors (true bugs): registered
– | – | – | – | CCCCCCCCCCCCCCCCCC(=O)O [Stearic acid] | – | – | Loss in mass [%] after 240 min with additive (“Specimen”) ([4]; alginate model cylinders d=13 mm, h=13 mm, additive in its most suitable concentration): 6.92%; Specimen loss in mass after 240 min compared to Standard loss in mass [%] ([4]; relative to standard specimen without additive): −6.87%
